From US20150328329A1, “LIGANDS THAT TARGET HCV-E2 BINDING SITES ON CD81 AND THERAPEUTIC METHODS USING THEM” (American University of Cairo, priority 2012, published 2015)

Key:
recombinant CD81-LEL = target: T1, recombinant CD81-LEL (Homo sapiens, UniProt P60033); test: SPR (Biacore T100) binding of additional ligands to immobilized CD81-LEL (Example 6); details: Table E, ligand 200 uM in PBS-1% DMSO
T1 construct: the large extracellular loop of CD81 (CD81-LEL); GST; His; Shoshana Levy Lab, Stanford (gift)
T1 sequence (P60033 113-201 limits assumed): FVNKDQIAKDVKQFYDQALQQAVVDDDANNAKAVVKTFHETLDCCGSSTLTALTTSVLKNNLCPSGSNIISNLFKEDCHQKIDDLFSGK
Protocol: SPR analysis was performed using a Biacore T100 workstation (GE Healthcare, NJ, USA). A recombinant form of the CD81-LEL protein with a GST-tag (Shoshana Levy Lab-Stanford) was used to determine the binding affinities of the ligands in the above list. 10 uM CD81-LEL-His diluted into 10 mM sodium acetate buffer pH 4.5 was immobilized for […] at a flow speed of 5 ul/min onto a CM5 sensor chip using amine coupling (EDC-NHS). Approximately 20,000 RU of protein were immobilized on the chip. The ligands were prepared as 200 uM solutions in PBS-1% DMSO (the running buffer) and they were introduced to the protein using a pre-programmed 3 min association and 1 min dissociation interval. Ligands that bind have a positive RU (response units) number and the strength of binding to the CD81 protein is related to the magnitude of the RU number; the larger the number the more binding.

[1] = target: T2, recombinant CD81-LEL (GST tag) (Homo sapiens, UniProt P60033); test: Surface plasmon resonance (Biacore T200) binding of ligands to immobilized recombinant CD81-LEL; details: Table A; ligand 600 μM in PBS-0.05% Tween-80; CD81-LEL-GST on CM5 chip
T2 construct: the large extracellular loop of CD81 (CD81-LEL); gift of Dr. Shoshana Levy, Stanford University
T2 sequence (P60033 113-201 limits assumed): T1 sequence (P60033 113-201 limits assumed)
Protocol: SPR analysis was performed using a Biacore T200 workstation (GE Healthcare, NJ, USA). A recombinant form of the CD81-LEL protein with a GST tag (generously provided by Dr. Shoshana Levy, Stanford University) was used to confirm, using an established experimental technique, the binding of several ligands to the protein. Briefly, 10 μM CD81-LEL-GST diluted into 10 mM Na-Acetate buffer pH 4.5 was immobilized for 15 min at a flow speed of 5 μl/min onto a CM5 sensor chip using amine-coupling (EDC-NHS). Approximately 20,000 RU of protein were immobilized on the chip. The ligands were prepared as 600 μM solutions in PBS-0.05% Tween-80 (the running buffer) and they were introduced to the protein using a pre-programmed 3 minute association and 1 minute dissociation interval.
The binding affinity of the most tightly bound ligand in the group selected for ligand conjugate design (Ligand 1) was estimated using data collected from a series of SPR binding experiments conducted at different ligand concentrations. To obtain the kinetic and affinity data needed to estimate the Kd, the original ligand was diluted serially with running buffer to produce seven different ligand concentrations: 1024 μM, […], 256 μM, 128 μM, 64 μM, 32 μM and 0 μM. Data were fitted using a monovalent binding model.
A total of 36 ligands were tested experimentally using surface Plasmon resonance (on a Biacore T200 instrument) to identify which of the molecules calculated to bind to Sites 1 and 2 on CD81 actually bind to a recombinant form of the protein (CD81-LEL). Twenty-six of the molecules provided a positive change in response units (RU) upon introduction to a chip containing the immobilized protein (Table A), indicating the ligands bound to the protein. The measured responses for the ligands that bound varied from 2.3 to 78.4 RU. Those ligands providing the largest responses tended to be molecules that were calculated to bind more deeply inside cavities in Site 1 (ligands 30930, 98026, 7436, 5069), Site 2 (ligands 127947, 38743) or Site 4 (ligands 78623, 16631).
Experimental analysis of ligand binding to recombinant CD81 LEL. Forty ligands calculated by AutoDock to bind to sites 1 and 2 on CD81-LEL were tested experimentally using surface Plasmon resonance as described in the Materials and Methods section. Ligand code numbers are those assigned by the National Cancer Institute. […] Because the binding experiments were performed by passing the same concentration of each ligand sequentially across the same protein coated chip using both techniques, the magnitude of the responses can be used to provide an approximate ranking of binding strength.

[2] = target: T3, native CD81 on Raji cells (Homo sapiens, UniProt P60033); test: Competition assay: inhibition of FITC-labeled JS-81 anti-CD81 antibody binding to native CD81 on live Raji cells (flow cytometry); type: cell-based
T3 construct: endogenous in cells; host or cells: Raji (human B cell line)
T3 sequence (P60033 1-236): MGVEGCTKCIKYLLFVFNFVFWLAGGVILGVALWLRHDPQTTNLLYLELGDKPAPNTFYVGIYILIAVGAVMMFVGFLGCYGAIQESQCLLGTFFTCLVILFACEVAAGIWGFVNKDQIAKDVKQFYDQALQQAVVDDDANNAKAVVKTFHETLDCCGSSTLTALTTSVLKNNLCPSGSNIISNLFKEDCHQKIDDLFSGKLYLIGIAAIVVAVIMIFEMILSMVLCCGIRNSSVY
Source text: A subset of these ligands and some of those listed in the patent have been tested to identify those ligands that bind to the correct region of the CD81 protein and for binding to native CD81 on living cells (a Raji cell line). This assay tests three concentrations of the ligand to determine if the ligand is capable of inhibiting the binding of an antibody called JS-81. This antibody is known to bind to the region of the CD81 protein we have targeted. If the ligand decreases JS-81 binding as you increase the concentration of the ligand, it is 1) binding to native CD81 on the Raji cells and 2) it is binding to the correct region of the protein.
For antibody neutralization assay Raji cells were used, a human B cell line that expressed high amounts of CD81 on the surface (data not shown). Cells were grown in RPMI medium (10% FCS, 1% penicillin/streptomycin, 1% L-glutamine, 1% non-essential amino acids, 1% sodium pyruvate, pH 7.4, at 37° C. with 5% CO2). 2×10^5 cells were incubated with or without different concentrations (50 μM, 100 μM, 400 μM and 1 mM) of indicated inhibitor for 20 min at room temperature, subsequently 1 ul (16 ng/μl) of FITC-labeled anti CD81 antibody (BD Pharmingen, 551108) was added to the cells and incubated for 20 min (antibody titration was performed to obtain a working dilution range, data not shown). Cells were washed and analyzed by flow cytometry using fluorescence-activated cell sorting (FACS) (BD FACSCalibur, software: Cell Quest Pro). Mean Fluorescence Intensity MFI was calculated using Flowjo software (TreesStar, www.flowjo.com).

Binding (RU) (recombinant CD81-LEL) | Compound | other results
2.9 RU | CC1=CC(=O)CC(C)(C)C1(O)/C=C/C(C)=C/C(=O)O (centres unmarked) [Ligand 148832] | 
3.4 RU | CCOc1cccc2cc(C(N)=O)c(=N)oc12 [Ligand 263636] | 
7.2 RU | O=C(O)C(Cc1ccccc1-c1ccccc1)C(=O)O [Ligand 94914] | 
7.4 RU | Cc1ccc(C)c(C(=O)CCC(=O)O)c1 [Ligand 215276] | 
4.2 RU | CCCCNCC1CCCO1 (centres unmarked) [Ligand 97538] | 
12.6 RU | N=C(N)NC(=S)Nc1ccc(Cl)cc1 [Ligand 403374] | 
2.6 RU | COc1cc(/N=N/c2ccccc2C(=O)O)ccc1O [Ligand 153172] | 
8.3 RU | O=C(O)c1ccc(OCCOc2ccccc2)cc1 [Ligand 120631] | 

Further lines, the compound ahead of its results:

Compound | Binding (RU) (recombinant CD81-LEL) | other results
Cc1ccc(NC(=S)NC(=O)c2ccccc2)cc1NC(=S)NC(=O)c1ccccc1 [Ligand 5856] | 2.7 RU | 
O=C(O)CC1OCC=C2CN3CCC45C6=CC(=O)C(=O)C([N+](=O)[O-])=C6NC4C1C2CC35 (centres unmarked) [Ligand 5069] |  | SPR Response Units [1]: 67.5 RU
CC(C)(C)c1ccc(OCC(=O)O)cc1 [Ligand 8481] | 1.8 RU | 
C=CCc1ccccc1OCC(=O)O [Ligand 60239] | 5.8 RU | 
O=C(O)c1[nH]c(=O)[nH]c(=O)c1F [Ligand 31712] | 4.1 RU | 
CCNc1ccccc1C(=O)O [Ligand 16162] | 5.1 RU | 
Nc1nc(O)c(CC(=O)O)s1 [Ligand 70980] |  | SPR Response Units [1]: 14.1 RU
CC(C)CNC(=O)/C=C\C(=O)O [Ligand 55573] |  | SPR Response Units [1]: 10.6 RU
CNC1(C(N)=O)CCNCC1 [Ligand 75846] |  | Inhibition of JS-81 Binding (%) ([2]; 50 μM ligand): 0%; Inhibition of JS-81 Binding (%) ([2]; 100 μM ligand): 0%; Inhibition of JS-81 Binding (%) ([2]; 400 μM ligand): 52%
O=C(O)/C(=C/c1ccccc1)c1ccccc1 [Ligand 40614] | 50.8 RU | Inhibition of JS-81 Binding (%) ([2]; 50 μM ligand): 0%; Inhibition of JS-81 Binding (%) ([2]; 100 μM ligand): 8%; Inhibition of JS-81 Binding (%) ([2]; 400 μM ligand): 26%
CC(C)OC1CCCC(O)C1CC(=O)O (centres unmarked) [Ligand 25368] |  | SPR Response Units [1]: 13.3 RU
N=C(N)Nc1ccc(NC(=N)N)cc1 [Ligand 20586] | 17.4 RU | 
NC(=O)c1ccc2c(c1)S(=O)(=O)c1ccccc1C2=O [Ligand 689002, 9-Oxo-9H-thioxanthene-3-carboxamide 10,10-dioxide] |  | inhibition at 50 µM ([2]; 50 μM ligand): 0%; inhibition at 100 µM ([2]; 100 μM ligand): 0%; inhibition at 400 µM ([2]; 400 μM ligand): 14%
O=C(Nc1ccc(O)c(C(=O)O)c1)Oc1ccccc1 [Ligand 68971] |  | SPR Response Units [1]: 12.1 RU
